In publication PMC7575488, “Phase 1 dose-escalation study of a novel oral PI3K/mTOR dual inhibitor, LY3023414, in patients with cancer” (Investigational New Drugs, 2020):

Key:
[1] = Phase 1 dose-escalation: tolerability and safety (DLTs, adverse events, CTCAE v4.0); format: in vivo
Protocol: This was a non-randomized, single-arm, open-label, Phase 1, dose-escalation study of oral LY3023414 in Japanese patients with advanced malignancies. A modified 3 + 3 dose-escalation method was used to evaluate the dose-limiting toxicity (DLT) of LY3023414. Enrollment of 3 patients and 6 patients were planned for dose level 1 (150 mg) and dose level 2 (200 mg), respectively. Dose-escalation decisions were made by agreement between investigators and the sponsor, with a consultation with the Safety Assessment Committee (SAC), as needed. If 2 patients experienced DLTs at any given dose, the sponsor examined safety data and consulted the SAC. Following consultation, the sponsor and investigators decided whether the dose was intolerable or additional patients were to be enrolled to the same or an intermediate dose level for further investigation. If ≥3 patients experienced DLTs at any given dose, the dose was considered intolerable for Japanese patients. No intrapatient dose escalation was allowed.
The study evaluated 2 dose levels, 150 mg or 200 mg LY3023414 monotherapy administered in the morning and evening, approximately 12 h apart. The cycle was of 21 days. […] No dose reductions were allowed during Cycle 1, unless a DLT was reported. Dose reductions were allowed in Cycle 2 and beyond at the discretion of the investigator. Patients were treated until a discontinuation criterion was met.
Tolerability and safety were assessed through clinical and laboratory evaluations at weekly intervals for the first 2 cycles and at least every 2 weeks thereafter. Adverse events (AEs) were graded according to the Common Terminology Criteria for Adverse Events Version 4.0 and coded to Medical Dictionary for Regulatory Activities preferred terms. All patients who received ≥1 dose of the study drug were included in the safety analysis.
A DLT was defined as any AE during Cycle 1 which was possibly related to study treatment with LY3023414 and fulfilled any of the following main criteria: Grade ≥ 3 non-hematological toxicity (except nausea, vomiting, diarrhea, constipation, anorexia, skin rash, or asymptomatic electrolyte abnormality for ≤3 days and responsive to appropriate treatment; transient ≤5 days hyperglycemia; and transient ≤7 days mucositis), Grade 4 hematological toxicity of ≥7 days, Grade 3 thrombocytopenia with Grade ≥ 2 bleeding or febrile neutropenia, requirement of platelet or packed red blood transfusion, and any toxicities requiring dose omissions of >20% of intended doses in Cycle 1. The maximum tolerated dose was defined as the highest dose of LY3023414 not causing a DLT in more than 33% of patients.

[2] = tested on: PI3K/mTOR kinase activity; assay: Pharmacodynamics: fasting glucose and C-peptide change from baseline; format: in vivo, human; conditions: baseline to 4 h post dose
Protocol: The primary objective of this study was to evaluate the tolerability and safety of LY3023414 up to the global recommended dose in Japanese patients with advanced malignancies. The secondary objectives were to evaluate PK and to document antitumor activity of LY3023414. The exploratory objective was to evaluate pharmacodynamic (PD) effects of LY3023414 on PI3K/mTOR kinase activity.
For PK assessment, blood samples were collected at pre dose and 0.5, 1, 2, 4, 8, and 12 h post dose on 2 occasions: (i) on Day 1 of Cycle 1 (single dose), and (ii) on Day 15 of Cycle 1 (multiple dose). For PD assessment, blood samples were collected at pre dose and 0.5, 1, 2, and 4 h post dose on 2 occasions: (i) on Day 1 of Cycle 1 (single dose), and (ii) on Day 15 of Cycle 1 (multiple dose).
Pharmacodynamic parameters (glucose and C-peptide) were analyzed for all patients. The mean percentage change from baseline against nominal time was provided for glucose and C-peptide.

CYP3A4 = tested on: CYP3A4; parameters: method as in PMID 29636360; conditions: drug-drug interaction analysis; cited from earlier work
tumor xenograft models = conditions: cited from earlier work
[3] = cited from earlier work

Structure (SMILES): CO[C@@H](C)Cn1c(=O)n(C)c2cnc3ccc(-c4cncc(C(C)(C)O)c4)cc3c21 [LY3023414]
- Maximum tolerated dose ([1]; BID dosing, Japanese patients): 200 mg
- Fatal events ([1]; due to AEs or any other reason): no fatal events
- ALT increased, AE possibly related to study drug ([1]; human, in vivo): 3 (25.0) n (%)
- AST increased, AE possibly related to study drug ([1]; human, in vivo): 3 (25.0) n (%)
- Anemia, AE possibly related to study drug ([1]; human, in vivo): 5 (41.7) n (%)
- Appetite decreased, AE possibly related to study drug ([1]; human, in vivo): 7 (58.3) n (%)
- Blood creatinine increased, AE possibly related to study drug ([1]; human, in vivo): 4 (33.3) n (%)
- Diarrhea, AE possibly related to study drug ([1]; human, in vivo): 5 (41.7) n (%)
- Drug-related Grade 4 or 5 AEs ([1]; human, in vivo): No drug-related Grade 4 or 5 AEs
- Fatigue, AE possibly related to study drug ([1]; human, in vivo): 4 (33.3) n (%)
- Hyperglycemia, AE possibly related to study drug ([1]; human, in vivo): 4 (33.3) n (%)
- Hypokalemia, AE possibly related to study drug ([1]; human, in vivo): 2 (16.7) n (%)
- Hypophosphatemia, AE possibly related to study drug ([1]; human, in vivo): 4 (33.3) n (%)
- Hypotension, AE possibly related to study drug ([1]; human, in vivo): 2 (16.7) n (%)
- Nausea, AE possibly related to study drug ([1]; human, in vivo): 8 (66.7) n (%)
- Patients with at least 1 dose adjustment ([1]; human, in vivo): 33.3%
- Patients with serious AEs ([1]; human, in vivo): 3 patients
- Platelet count decreased, hematological AE possibly related to study drug ([1]; human, in vivo): 5 (41.7) n (%)
- Proteinuria, AE possibly related to study drug ([1]; human, in vivo): 4 (33.3) n (%)
- Pruritis, AE possibly related to study drug ([1]; human, in vivo): 3 (25.0) n (%)
- Pyrexia, AE possibly related to study drug ([1]; human, in vivo): 2 (16.7) n (%)
- Rash, AE possibly related to study drug ([1]; human, in vivo): 3 (25.0) n (%)
- Stomatitis, AE possibly related to study drug ([1]; human, in vivo): 9 (75.0) n (%)
- Vomiting, AE possibly related to study drug ([1]; human, in vivo): 4 (33.3) n (%)
- WBC count decreased, hematological AE possibly related to study drug ([1]; human, in vivo): 2 (16.7) n (%)
- Weight decreased, AE possibly related to study drug ([1]; human, in vivo): 2 (16.7) n (%)
- anemia, related AE Grade ≥ 3, patients ([1]; human, in vivo): 16.7%
- anemia, treatment-related AE, patients ([1]; human, in vivo): 41.7%
- decreased appetite, treatment-related AE, patients ([1]; human, in vivo): 58.3%
- decreased platelet count, treatment-related AE, patients ([1]; human, in vivo): 41.7%
- decreased weight, treatment-related AE, patients ([1]; human, in vivo): 16.7%
- decreased white blood cell count, treatment-related AE, patients ([1]; human, in vivo): 16.7%
- diarrhea, treatment-related AE, patients ([1]; human, in vivo): 41.7%
- fatigue, treatment-related AE, patients ([1]; human, in vivo): 33.3%
- hyperglycemia, related AE Grade ≥ 3, patients ([1]; human, in vivo): 16.7%
- hyperglycemia, treatment-related AE, patients ([1]; human, in vivo): 33.3%
- hypokalemia, treatment-related AE, patients ([1]; human, in vivo): 16.7%
- hypophosphatemia, related AE Grade ≥ 3, patients ([1]; human, in vivo): 16.7%
- hypophosphatemia, treatment-related AE, patients ([1]; human, in vivo): 33.3%
- hypotension, treatment-related AE, patients ([1]; human, in vivo): 16.7%
- increased alanine aminotransferase, treatment-related AE, patients ([1]; human, in vivo): 25.0%
- increased aspartate aminotransferase, treatment-related AE, patients ([1]; human, in vivo): 25.0%
- increased blood creatinine, treatment-related AE, patients ([1]; human, in vivo): 33.3%
- nausea, treatment-related AE, patients ([1]; human, in vivo): 66.7%
- proteinuria, treatment-related AE, patients ([1]; human, in vivo): 33.3%
- pruritus, treatment-related AE, patients ([1]; human, in vivo): 25.0%
- pyrexia, treatment-related AE, patients ([1]; human, in vivo): 16.7%
- rash, treatment-related AE, patients ([1]; human, in vivo): 25.0%
- stomatitis, related AE Grade ≥ 3, patients ([1]; human, in vivo): 16.7%
- stomatitis, treatment-related AE, patients ([1]; human, in vivo): 75.0%
- vomiting, treatment-related AE, patients ([1]; human, in vivo): 33.3%
- Dose-limiting toxicities (DLTs) ([1]; in vivo): No DLTs
- Patients with at least 1 AE considered possibly related to the study drug ([1]; in vivo): All patients
- C-peptide, mean percentage change from baseline ([2]; 150 mg): 106.0%
- Glucose, mean percentage change from baseline ([2]; 150 mg): 23.6%
- C-peptide, mean percentage change from baseline ([2]; 200 mg): 165.4%
- Glucose, mean percentage change from baseline ([2]; 200 mg): 24.7%
- Inhibition of the metabolic clearance of drugs metabolized through CYP3A4 (CYP3A4): weak inhibitor
- Antitumor activity (tumor xenograft models): potent antitumor activity
- Frequency of stomatitis ([3]; 200-mg dose, global study): 33.3%
- Disease control rate ([3]; global Phase 1 study): 34.0%
- Interstitial lung disease (ILD) ([3]; global study): None of the patients experienced ILD
- Safe and tolerable dose as monotherapy (global recommended dose) ([3]; human, in vivo): up to 200 mg
